# Read-outs that look alike come from different tables or passages of the source. Marks after values point to notes of the source that are not given here.
# Tests used:
# circulating estradiol = settings: boars [56]; cited from earlier work
# heifers [1] = test: Example IV: intravaginal device containing 1 g letrozole in heifers, ovulation and ovarian structures; assay type: in vivo, cattle
# Protocol: To test the hypothesis that letrozole treatment during the preovulatory stage, initiated prior to onset of follicular selection and prolonged for a 7-day period will be able to induce the development of more than one follicle to a preovulatory size and to delay the occurrence of ovulation. To develop a practical route of administration of letrozole in cattle.
# Five to eight days after PGF-induced ovulation, FA was performed followed by a double dose of PGF 60 and 72 hr later. Heifers were randomly divided into two groups and received from Day 1 (Day 0=wave emergence) until Day 7 or until ovulation is detected: • intravaginal device containing 1 g of letrozole (n=15) • Intravaginal blank device (letrozole free, n=15)
# Transrectal ultrasound examination and blood sample collection were performed daily from day of ablation until Day 12 post-ovulation. blood samples were collected frequently at the time of catheter placement, at 0, 10, 20, 30 min, 1, 1.5, 2, 3, 4, 6, 8, 12 and 24 hours post-treatment
# [2] = cited from earlier work
# plasma estradiol = test: Example II: plasma estradiol during 3-day letrozole regimen; assay type: in vivo, cattle; settings: 3-day regimen, regardless of stage of follicular development
# Protocol: For practical purposes, the total dose of letrozole (250 μg/kg) was calculated on the basis of an average weight of 350 kg for all heifers and administered intravenously in daily divided doses over 3 days (85 μg/kg per day). For intravenous injection, letrozole was prepared in 95% ethanol to a final concentration of 5 mg/ml, resulting in an injection volume of 6 mL/day.
# Plasma estradiol concentrations were determined in duplicate by enzyme-linked immunosorbent assay (Cayman Chemical Company, Ann Arbor, Mich., USA). In this competitive ELISA, plasma steroid competes with acetylcholinesterase labelled steroid for the binding site on the polyclonal rabbit anti-steroid antibody. The antiserum to estradiol was reported to cross-react with estradiol-3-glucoronide (14%), estrone (12%), and estriol (0.3%). For all other steroids cross-reactivities were reported as <0.1%. The minimum and maximum values along the standard curve were 6.6 and 4000 pg/well, respectively. The intra- and inter-assay coefficients of variation for reference samples assayed in duplicate were 11.7% and 12.7, respectively.
# For the same reasons, estradiol concentrations were transformed to a percentage of the mean concentration of two pre-treatment data points (i.e. for each individual heifer before statistical analysis.
# heifers [3] = test: Example III: letrozole 1 mg/kg intravenously or intramuscularly in heifers, ovarian ultrasonography; assay type: in vivo, cattle; settings: for Interwave Interval / Interovulatory Interval: mean±SEM
# Protocol: Ovarian cyclicity in heifers was synchronized using transvaginal ultrasound-guided follicular ablation followed by a double dose of PGF 4 days after ablation. The ovaries were examined daily by transrectal ultrasonography to detect ovulation. Three days after ovulation, heifers were assigned randomly to four treatment groups and given letrozole at a dose of 1 mg/kg intravenously (in benzyl alcohol, n=10) or intramuscularly (in benzyl alcohol plus canola oil 1:1 v/v, n=10), or given a placebo intravenously (benzyl alcohol, n=5) or intramuscularly (benzyl alcohol plus canola oil 1:1 v/v, n=5). Ovarian structures were monitored by ultrasonography and blood samples were collected by jugular venipuncture twice daily from pre-treatment to post-treatment ovulations. Comparisons among groups were made by one-way ANOVA for single-point measurements and by ANOVA for repeated measures for time-series data.
# Transrectal ultrasonography: daily from PGF treatment to the first ovulation post-treatment.
# Endpoints are: Follicular diameter profiles; CL diameter profile; Circulating progesterone concentration; Circulating FSH and LH profiles; Letrozole profile and bioavailability; Circulating estradiol concentration Follicular fluid estradiol concentration).
# plasma progesterone = test: Example II: plasma progesterone, 3-day letrozole regimen; assay type: in vivo, cattle; settings: 3-day regimen, groups combined; numerically higher
# Protocol: Four days after follicular ablation, heifers were given 500 μg of cloprostenol (PGF, Estrumate, Schering-Plough Animal Health, Pointe-Claire, QC, Canada) intramuscularly (im) to induce regression of the CL and to synchronize ovulation. The experiment was performed in two replicates (n=20-27 per replicate) and each heifer was used only once. In replicate 1, heifers were assigned randomly at the time of ovulation (Day 0) to the following groups and given a 3-day regimen of letrozole from Days 1 to 3 (n=5), Days 3 to 5 (n=5), Days 5 to 7 (n=5), or no treatment (control group, n=5). In replicate 2, heifers were similarly assigned to groups and given letrozole from Days 1 to 3, (n=5), Days 3 to 5 (n=4), or Days 5 to 7 (n=4), but untreated control heifers were arranged in three sub-groups to serve as contemporaneous controls for each letrozole-group during intensive blood sampling periods (i.e., control Days 1 to 3, n=4; control Days 3 to 5, n=4; and control Days 5 to 7, n=5). For practical purposes, the total dose of letrozole (250 μg/kg) was calculated on the basis of an average weight of 350 kg for all heifers and administered intravenously in daily divided doses over 3 days (85 μg/kg per day). […]
# Plasma progesterone concentrations were determined in duplicate using a commercial solid-phase kit (Coat-A-Count; Diagnostic Products Corporation, Los Angeles, Calif., USA). […]
smiles,measurement,setting,value
"N#Cc1ccc(C(c2ccc(C#N)cc2)n2cncn2)cc1 [Letrozole, letrozole]",reduction in circulating estradiol concentrations,circulating estradiol,88%
same,size of the ovulated dominant follicle (DF),heifers [1],larger DF
same,delay of ovulation,heifers [1]; Day 1 to Day 7 of pre-ovulatory wave,24 h
same,half-life of letrozole,[2]; in humans [46],approximately 2 days
same,half-life of letrozole,"[2]; in women [41, 61]",48 h
same,mean residence time,[2]; in women [41],59 h
same,volume of distribution,[2]; in women [41],1.87 L/kg
same,plasma estradiol concentrations compared to control heifers,plasma estradiol,not different
same,Interwave Interval,heifers [3]; 1 mg/kg IM in benzyl alcohol plus canola oil,11.7 ± 0.34^b Days
same,Interwave Interval,"heifers [3]; 1 mg/kg IM in benzyl alcohol plus canola oil, listed as letrozole",11.7 days
same,day-to-day diameter profile of the corpus luteum vs IM controls,"heifers [3]; 1 mg/kg IM, P<0.05",larger
same,Interovulatory Interval,heifers [3]; 1 mg/kg IM,19.7 ± 0.83 days
same,Interwave Interval,heifers [3]; 1 mg/kg IV in benzyl alcohol,"10.6 ± 0.30^a,b Days"
same,Interwave Interval,"heifers [3]; 1 mg/kg IV in benzyl alcohol, listed as letrozole",10.6 days
same,day-to-day diameter profile of the dominant follicle among groups,"heifers [3]; 1 mg/kg IV or IM vs placebo, Day 3 after ovulation",not different
same,Interovulatory Interval,heifers [3]; 1 mg/kg IV,18.9 ± 0.70 days
same,differences in plasma progesterone concentrations vs control,plasma progesterone,not significant
